Laboratory results taken from ChEMBL document CHEMBL1135119, “Solid-phase synthesis of FKBP12 inhibitors: N-sulfonyl and N-carbamoylprolyl/pipecolyl amides” (Bioorg Med Chem Lett, 2002).

Key:
[1] = biological target: Peptidyl-prolyl cis-trans isomerase FKBP1A (Homo sapiens, UniProt P62942); assay: Ability to inhibit peptidyl-prolyl isomerase (PPIase, or rotamase) activity of FK506 binding protein 12
Mus musculus = assay: Recovery of TH-immunostaining in […]-treated mice by post-MPTP treatment at a peroral dose of 10 mg/kg; type: functional, organism-based; set-up: dose 10 mg/kg

Sequence of Peptidyl-prolyl cis-trans isomerase FKBP1A (P62942 whole entry): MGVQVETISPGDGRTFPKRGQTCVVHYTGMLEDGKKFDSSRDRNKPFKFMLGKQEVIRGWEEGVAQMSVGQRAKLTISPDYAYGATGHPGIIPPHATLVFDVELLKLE

SMILES | Ki [1] | Recovery (Mus musculus)
O=C(NCCc1ccccc1)C1CCCN1C(=O)NCc1ccccc1 (centres undefined) | > 30 µM | 
CCCCNC(=O)C1CCCCN1S(=O)(=O)/C=C/c1ccccc1 (centres undefined) | 11 µM | 
CCCCNC(=O)C1CCCN1C(=O)NCc1ccccc1 (centres undefined) | > 50 µM | 
CCCCNC(=O)C1CCCN1S(=O)(=O)c1ccccc1 (centres undefined) | > 50 µM | 
O=C(NCCc1ccccc1)C1CCCN1C(=O)NC1CCCCC1 (centres undefined) | > 50 µM | 
O=C(NCCc1ccccc1)C1CCCN1S(=O)(=O)CCc1ccccc1 (centres undefined) | 32 µM | 
O=C(NCCCc1ccccc1)C1CCCN1S(=O)(=O)c1ccccc1 (centres undefined) | 9.5 µM | 
Cc1ccc(S(=O)(=O)N2CCCC2C(=O)NCCCc2ccccc2)cc1 (centres undefined) | 7.6 µM | 
O=C(NCCc1ccccc1)C1CCCN1S(=O)(=O)c1ccccc1 (centres undefined) | 37 µM | 
CCCCNC(=O)C1CCCN1C(=O)NC1CCCCC1 (centres undefined) | > 50 µM | 
CCc1ccccc1NC(=O)N1CCCC1C(=O)NCCc1ccccc1 (centres undefined) | > 50 µM | 
CCCCCCCCS(=O)(=O)N1CCCC1C(=O)NCCCc1ccccc1 (centres undefined) | 5.4 µM | 
O=C(NCCCc1ccccc1)C1CCCN1C(=O)NC1CCCCC1 (centres undefined) | > 33 µM | 
CCCCCCCCS(=O)(=O)N1CCCC1C(=O)NCc1ccccc1 (centres undefined) | > 50 µM | 
O=C(NCCc1ccccc1)C1CCCN1C(=O)Nc1ccccc1 (centres undefined) | 30 µM | 
O=C(NCCc1ccccc1)C1CCCN1S(=O)(=O)/C=C/c1ccccc1 (centres undefined) | 22 µM | 
O=C(NCc1ccccc1)C1CCCCN1S(=O)(=O)Cc1ccccc1 (centres undefined) | 39 µM | 
CCCCNC(=O)C1CCCCN1S(=O)(=O)Cc1ccccc1 (centres undefined) | > 50 µM | 

SMILES | Ki [1] | Recovery (Mus musculus)
CCCCCCCCS(=O)(=O)N1CCCC1C(=O)NCCc1ccccc1 (centres undefined) | > 50 µM | 
CCCCNC(=O)C1CCCN1S(=O)(=O)CCc1ccccc1 (centres undefined) | 42 µM | 
O=C(NCc1ccccc1)C1CCCN1C(=O)Nc1ccccc1 (centres undefined) | 33 µM | 
CCCCNC(=O)C1CCCN1C(=O)Nc1ccccc1CC (centres undefined) | > 50 µM | 
O=C(NCCCCc1ccccc1)[C@@H]1CCCCN1S(=O)(=O)Cc1ccccc1 |  | 37%
CCC(C)(C)C(=O)C(=O)N1CCC[C@H]1C(=O)OCCCc1cccnc1 |  | 40%
O=C(NCc1ccccc1)C1CCCN1C(=O)NC1CCCCC1 (centres undefined) | > 50 µM | 
O=C(NCc1ccccc1)C1CCCN1S(=O)(=O)CCc1ccccc1 (centres undefined) | 22 µM | 
CCc1ccccc1NC(=O)N1CCCC1C(=O)NCc1ccccc1 (centres undefined) | > 50 µM | 
CCCCNC(=O)C1CCCN1S(=O)(=O)c1ccc(C)cc1 (centres undefined) | > 50 µM | 
O=C(NCc1ccccc1)C1CCCN1S(=O)(=O)/C=C/c1ccccc1 (centres undefined) | > 50 µM | 
Cc1ccc(S(=O)(=O)N2CCCC2C(=O)NCCc2ccccc2)cc1 (centres undefined) | 33 µM | 
O=C(NCc1ccccc1)C1CCCN1C(=O)NCc1ccccc1 (centres undefined) | > 50 µM | 
Cc1ccc(S(=O)(=O)N2CCCC2C(=O)NCc2ccccc2)cc1 (centres undefined) | > 50 µM | 
O=C(NCCCc1ccccc1)C1CCCN1S(=O)(=O)CCc1ccccc1 (centres undefined) | 13 µM | 
CCc1ccccc1NC(=O)N1CCCC1C(=O)NCCCc1ccccc1 (centres undefined) | > 50 µM | 
O=C(NCCc1ccccc1)C1CCCCN1S(=O)(=O)Cc1ccccc1 (centres undefined) | 13 µM | 
CCCCNC(=O)C1CCCCN1S(=O)(=O)c1ccccc1 (centres undefined) | 4.7 µM | 

Continued by falling Ki [1], values first:

Ki [1] | SMILES | Recovery (Mus musculus)
4.2 µM | O=C(NCCCc1ccccc1)[C@@H]1CCCN1C(=O)NCc1ccccc1 | 31%
3.9 µM | O=C(NCc1ccccc1)C1CCCCN1S(=O)(=O)/C=C/c1ccccc1 (centres undefined) | 
2.8 µM | O=C(NCCCc1ccccc1)[C@@H]1CCCN1S(=O)(=O)Cc1ccccc1 | 17%
2.5 µM | O=C(NCc1ccccc1)C1CCCCN1S(=O)(=O)c1ccccc1 (centres undefined) | 
2.4 µM | O=C(NCCc1ccccc1)C1CCCCN1S(=O)(=O)/C=C/c1ccccc1 (centres undefined) | 
2.2 µM | O=C(NCCCc1ccccc1)C1CCCCN1S(=O)(=O)Cc1ccccc1 (centres undefined) | 
1.6 µM | CCc1ccc(S(=O)(=O)N2CCCCC2C(=O)NCCc2ccccc2)cc1 (centres undefined) | 
1.6 µM | O=C(NCCCCc1ccccc1)[C@@H]1CCCCN1C(=O)NCc1ccccc1 | 42%
1.5 µM | O=C(NCCc1ccccc1)C1CCCCN1S(=O)(=O)c1ccccc1 (centres undefined) | 
1.4 µM | O=C(NCCCc1ccccc1)C1CCCN1C(=O)Nc1ccccc1 (centres undefined) | 
1.3 µM | CCc1ccc(S(=O)(=O)N2CCCCC2C(=O)NCc2ccccc2)cc1 (centres undefined) | 
1.3 µM | O=C(NCCCc1ccccc1)C1CCCN1S(=O)(=O)/C=C/c1ccccc1 (centres undefined) | 
1.2 µM | CCCCNC(=O)C1CCCCN1S(=O)(=O)c1ccc(CC)cc1 (centres undefined) | 
1.1 µM | O=C(NCCCc1ccccc1)C1CCCCN1S(=O)(=O)/C=C/c1ccccc1 (centres undefined) | 
0.72 µM | O=C(NCCCc1ccccc1)C1CCCCN1S(=O)(=O)c1ccccc1 (centres undefined) | 
